This is an account of results in patent publication US20150051202A1, “TRIAZOLOPYRAZINE DERIVATIVES” (Merck Patent GmbH, priority 2012, published 2015).

The test system of data set [1] is tumors over-expressing IDO. As to conditions: several tumor models, monotherapy; cited from earlier work.
A further data set has as its target GCN2 (Homo sapiens, UniProt Q9P2K8). The data set can be described thus: GCN2 enzyme assay (TR-FRET Lanthascreen, GFP-eIF2alpha substrate). Type of data set: biochemical. A digest of the protocol:
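GCN2 (30 nM) incubated at room temperature with 10 μM ATP and 80 nM GFP-eIF2alpha in 50 mM Hepes pH 7.0, 10 mM MgCl2, 5 mM MnCl2, 2 mM DTT, 0.1% BSA, 1% DMSO. Reaction stopped with EDTA; phospho-eIF2alpha detected by antibody TR-FRET, excitation 340 nm.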

The target of a further data set is T1, SYK (Homo sapiens, UniProt P43405).
T1 construct: purchased BPS Bioscience, CA, USA
In words: SYK enzyme assay (Flash plate assay / Caliper mobility shift assay). It counts as biochemical. A digest of the protocol:
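Flashplate: 2.5 nM SYK, 400 nM biotinylated peptide and 10 μM ATP with 33P-ATP, pH 7.5, 1 h at 30 °C, EDTA stop, radioactivity read, background with 0.1 μM staurosporine. Caliper: 90 min at 25 °C in HEPES pH 7.5, 1 mM MgCl2, 1 mM DTT, mobility-shift percent conversion of fluorescent peptide. IC50 from dose-response in both.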

A further data set has as its system murine model of RA. As to conditions: cited from earlier work.
Another data set relates to RA. As to conditions: RA Phase II studies in humans; cited from earlier work.
For the next data set, the system named is 3 LL lung carcinoma. As to conditions: mice; Rodriguez 2004; cited from earlier work.

Chain of GCN2 (Q9P2K8 whole entry): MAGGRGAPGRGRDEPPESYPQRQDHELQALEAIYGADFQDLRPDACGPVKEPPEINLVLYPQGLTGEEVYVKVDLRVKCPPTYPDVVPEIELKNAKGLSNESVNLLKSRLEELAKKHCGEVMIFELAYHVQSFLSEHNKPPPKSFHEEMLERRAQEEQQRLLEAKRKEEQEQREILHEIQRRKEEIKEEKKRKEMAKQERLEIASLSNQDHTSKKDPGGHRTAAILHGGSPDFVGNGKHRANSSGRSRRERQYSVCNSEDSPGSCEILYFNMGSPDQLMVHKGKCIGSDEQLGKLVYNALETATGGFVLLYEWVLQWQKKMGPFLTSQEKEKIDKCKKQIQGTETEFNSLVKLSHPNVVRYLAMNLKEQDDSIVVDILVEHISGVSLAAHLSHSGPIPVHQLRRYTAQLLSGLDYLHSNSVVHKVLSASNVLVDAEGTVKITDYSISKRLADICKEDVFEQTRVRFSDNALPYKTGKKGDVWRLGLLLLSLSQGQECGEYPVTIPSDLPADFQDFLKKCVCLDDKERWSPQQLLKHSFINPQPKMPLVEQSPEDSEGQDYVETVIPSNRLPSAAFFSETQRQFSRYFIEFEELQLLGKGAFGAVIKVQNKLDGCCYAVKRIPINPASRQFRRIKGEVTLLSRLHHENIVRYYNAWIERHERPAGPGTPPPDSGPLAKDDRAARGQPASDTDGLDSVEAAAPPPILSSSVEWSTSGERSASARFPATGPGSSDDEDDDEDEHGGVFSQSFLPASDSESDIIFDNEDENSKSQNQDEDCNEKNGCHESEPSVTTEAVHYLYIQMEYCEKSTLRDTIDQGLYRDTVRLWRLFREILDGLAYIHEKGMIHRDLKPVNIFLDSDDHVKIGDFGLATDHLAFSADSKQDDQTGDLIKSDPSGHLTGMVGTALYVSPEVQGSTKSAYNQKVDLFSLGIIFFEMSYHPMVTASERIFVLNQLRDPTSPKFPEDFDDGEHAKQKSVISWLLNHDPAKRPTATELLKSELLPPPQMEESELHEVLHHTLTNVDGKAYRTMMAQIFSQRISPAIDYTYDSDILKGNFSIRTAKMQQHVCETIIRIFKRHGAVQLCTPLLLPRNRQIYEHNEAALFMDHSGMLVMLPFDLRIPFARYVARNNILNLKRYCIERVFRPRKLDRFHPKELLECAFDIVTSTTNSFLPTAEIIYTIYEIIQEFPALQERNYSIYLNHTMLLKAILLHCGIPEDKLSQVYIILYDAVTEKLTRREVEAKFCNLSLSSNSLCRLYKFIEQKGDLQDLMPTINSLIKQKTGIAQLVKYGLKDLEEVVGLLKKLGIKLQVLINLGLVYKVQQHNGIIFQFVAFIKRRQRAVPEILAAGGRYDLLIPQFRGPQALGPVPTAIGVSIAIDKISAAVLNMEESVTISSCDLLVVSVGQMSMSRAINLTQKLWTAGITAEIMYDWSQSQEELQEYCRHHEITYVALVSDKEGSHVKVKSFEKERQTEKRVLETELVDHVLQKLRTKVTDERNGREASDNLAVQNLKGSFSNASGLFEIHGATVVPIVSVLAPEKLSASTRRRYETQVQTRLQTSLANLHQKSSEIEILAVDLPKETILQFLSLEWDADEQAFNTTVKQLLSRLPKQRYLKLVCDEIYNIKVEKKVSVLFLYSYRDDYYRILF

In the case of `Cn1cc(C[C@H](N)C(=O)O)c2ccccc21` [Compound 1MT, 1 methyl-tryptophan], the tumor regression entry in data set [1] is given as “unable to elicit tumor regression”.

For `COc1ccc(-c2cncc3nc(Nc4ccc(N5CCN(C)CC5)c(OC)c4)nn23)cc1` [Compound A92, [3-methoxy-4-(4-methyl-piperazin-1-yl)-phenyl]-[5-(4-methoxy-phenyl)-[1,2,4]triazolo[1,5-a]pyrazin-2-yl]-amine], the half-inhibitory concentration (IC50) on GCN2 and at SYK was under 1 µM throughout.

`COc1cc(Nc2nc3cncc(-c4ccc(NS(C)(=O)=O)cc4)n3n2)ccc1N1CCN(C)CC1` [Compound A93, N-(4-{2-[3-methoxy-4-(4-methyl-piperazin-1-yl)-phenylamino]-[1,2,4]triazolo[1,5-a]pyrazin-5-yl}-phenyl)-methanesulfonamide]: the IC50 on GCN2 is under 1 µM; at SYK it was 1 to 5 µM.

Regarding `CNS(=O)(=O)c1ccc(-c2cncc3nc(Nc4ccc(N5CCN(C)CC5)c(OC)c4)nn23)cc1` [Compound A94, 4-{2-[3-methoxy-4-(4-methyl-piperazin-1-yl)-phenylamino]-[1,2,4]triazolo[1,5-a]pyrazin-5-yl}-N-methyl-benzenesulfonamide], the IC50 at GCN2 is under 1 µM; at SYK, 1 to 5 µM.

In the case of `COc1cc(Nc2nc3cncc(-c4cccc(NS(C)(=O)=O)c4)n3n2)ccc1N1CCN(C)CC1` [Compound A95, N-(3-{2-[3-methoxy-4-(4-methyl-piperazin-1-yl)-phenylamino]-[1,2,4]triazolo[1,5-a]pyrazin-5-yl}-phenyl)-methanesulfonamide], the IC50 at GCN2 is under 1 µM; at SYK, 1 to 5 µM.

Regarding `COc1cc(Nc2ncc(F)c(Nc3ccc4c(n3)NC(=O)C(C)(C)O4)n2)cc(OC)c1OC` [Compound R406], in the data set with murine model of RA, the bone erosion result is listed as “significantly reduced”, the clinical scores entry is “significant improvement” and the serum cytokine concentrations result was “significantly reduced”. Moreover, in the data set on RA, the “efficacy (ACR scores)” value was “efficacy (ACR scores improvement)” and the tolerability result is on record as “good tolerability”.

With `N=C(NO)NCC[C@H](N)C(=O)O` [N-hydroxy-nor-L-Arg], in the data set with 3 LL lung carcinoma, the “growth of s.c. 3 LL lung carcinoma” value is given as “blocks growth”.
